Our source for the IC50 values is US12338256B2, “Aza-tetracyclic oxazepine compounds and uses thereof” (Genentech, Inc., priority 2022, dated 2025).

SMILES strings stand for the structures. pIC50: −log10 of the molar value.

Usually pIC50 stands for −log10 of the IC50, conventionally taken in molar units.

In assay [1] the test system is HPAC (homozygous mutant KRAS G12D human pancreatic cell line). As to the kind of experiment: KRAS 3D-Cell Proliferation Assay, HPAC (Example 503). Format: cell-based. The settings on record: Homo sapiens, HPAC, 168 h, HPAC 3D culture, 7 days, CellTiter-Glo 3D; read-out: Prolif HPAC 3D ATP IC50. In short, it runs like this: (§1)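 KRAS G12D homozygous pancreatic lines and KRAS wild-type lung lines grown as 3D cultures in ultra-low-attachment wells in RPMI-1640/10% FBS, dosed after overnight with compound dilution series (0.3% DMSO final) for 7 days at 37 °C. ATP read by CellTiter-Glo 3D luminescence; IC50 from 4-parameter Hill fit, normalized to DMSO and 1 μM staurosporine.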
(In general: Cellular ATP, detected with luciferase, serves as a proxy for viable cell number.)

The subject of assay [2] is H1975 (KRAS wild type human lung adenocarcinoma cell line). As to the kind of experiment: KRAS 3D-Cell Proliferation Assay, H1975 (Example 503). Format: cell-based. Particulars: Homo sapiens, NCI-H1975, 168 h, H1975 3D culture, 7 days, CellTiter-Glo 3D; read-out: Prolif H1975 3D ATP IC50. An outline of the steps:
as §1

As to `Cc1c(F)c(N)cc(-c2nc3c4c(nc(OC[C@H](F)CN5CC6(COC6)C5)nc4c2F)N2C[C@H]4CC[C@H](N4)[C@H]2[C@H](C)O3)c1C(F)(F)F` [Compound 144], the pIC50 is 7.67 in assay [1] and 5.12 in assay [2].

On to `Cc1nc(N)cc(-c2nc3c4c(nc(OCC5(CN6CCO[C@H](C)C6)CC5)nc4c2F)N2C[C@H]4CC[C@H](N4)[C@H]2[C@H](C)O3)c1C(F)(F)F` [Compound 213, 4-((5S,5aS,6S,9R)-1-Fluoro-5-methyl-12-((1-(((R)-2-methylmorpholino)methyl)cyclopropyl)methoxy)-5a,6,7,8,9,10-hexahydro-5H-4-oxa-3,10a,11,13,14-pentaaza-6,9-methanonaphtho[1,8-ab]heptalen-2-yl)-6-methyl-5-(trifluoromethyl)pyridin-2-amine], for which the pIC50 was 8.90 in assay [1] and 6.53 in assay [2].

Take `Cc1c(F)c(N)cc(-c2nc3c4c(nc(OC[C@@]56CCCN5C[C@H](F)C6)nc4c2F)N2C[C@H]4CC[C@H](N4)[C@H]2[C@H](C)O3)c1C=O` [Compound 59, 4-Amino-3-fluoro-6-((5S,5aS,6S,9R)-1-fluoro-12-(((2R,7aS)-2-fluorotetrahydro-1H-pyrrolizin-7a(5H)-yl)methoxy)-5-methyl-5a,6,7,8,9,10-hexahydro-5H-4-oxa-3,10a,11,13,14-pentaaza-6,9-methanonaphtho[1,8-ab]heptalen-2-yl)-2-methylbenzaldehyde]: the pIC50 in assay [1] is 6.93; in assay [2], 4.98.

`Cc1c(F)c(N)cc(-c2nc3c4c(nc(OC[C@@]56CCCN5C[C@H](F)C6)nc4c2F)N2C[C@H]4CC[C@H](N4)[C@H]2[C@H](C(F)(F)F)O3)c1CC(F)F` [Compound 250, 4-(2,2-Difluoroethyl)-2-fluoro-5-((5R,5aS,6S,9R)-1-fluoro-12-(((2R,7aS)-2-fluorotetrahydro-1H-pyrrolizin-7a(5H)-yl)methoxy)-5-(trifluoromethyl)-5a,6,7,8,9,10-hexahydro-5H-4-oxa-3,10a,11,13,14-pentaaza-6,9-methanonaphtho[1,8-ab]heptalene-2-yl)-3-methylaniline]: the pIC50 in assay [1] was 7.77; in assay [2], 6.00.

As to `Cc1nc(N)cc(-c2nc3c4c(nc(OCC5(CN6CC7CC(C6)O7)CC5)nc4c2F)N2C[C@H]4CC[C@H](N4)[C@H]2[C@H](C)O3)c1C(F)(F)F` [Compound 265, 4-((5S,5aS,6S,9R)-12-((1-((6-oxa-3-azabicyclo[3.1.1]heptan-3-yl)methyl)cyclopropyl)methoxy)-1-fluoro-5-methyl-5a,6,7,8,9,10-hexahydro-5H-4-oxa-3,10a,11,13,14-pentaaza-6,9-methanonaphtho[1,8-ab]heptalene-2-yl)-6-methyl-5-(trifluoromethyl)pyridin-2-amine], the figures for the pIC50 in assay [1] and in assay [2] were 8.65 and 5.20, respectively.

Turning to `Cc1c(F)c(N)nc(-c2nc3c4c(nc(OC[C@@]56CCCN5C[C@H](F)C6)nc4c2F)N2C[C@H]4CC[C@H](N4)[C@H]2[C@H](C)O3)c1C(F)(F)F` [Compound 191, 3-Fluoro-6-((5S,5aS,6S,9R)-1-fluoro-12-(((2R,7aS)-2-fluorotetrahydro-1H-pyrrolizin-7a(5H)-yl)methoxy)-5-methyl-5a,6,7,8,9,10-hexahydro-5H-4-oxa-3,10a,11,13,14-pentaaza-6,9-methanonaphtho[1,8-ab]heptalen-2-yl)-4-methyl-5-(trifluoromethyl)pyridin-2-amine], the figures for the pIC50 in assay [1] and in assay [2] were 7.53 and 5.85, respectively.

As for `Cc1nc(N)cc(-c2nc3c4c(nc(OCC5(CN6C[C@@H](C)O[C@@H](C)C6)CC5)nc4c2F)N2C[C@H]4CC[C@H](N4)[C@H]2[C@H](C)O3)c1C(F)(F)F` [Compound 218, 4-((5S,5aS,6S,9R)-12-((1-(((2R,6S)-2,6-Dimethylmorpholino)methyl)cyclopropyl)methoxy)-1-fluoro-5-methyl-5a,6,7,8,9,10-hexahydro-5H-4-oxa-3,10a,11,13,14-pentaaza-6,9-methanonaphtho[1,8-ab]heptalen-2-yl)-6-methyl-5-(trifluoromethyl)pyridin-2-amine], the pIC50 was 8.87 in assay [1] and 6.42 in assay [2].

Turning to `Cc1c(Cl)c(N)cc(-c2nc3c4c(nc(OC[C@@]56CCCN5C[C@H](F)C6)nc4c2Cl)N2C[C@H]4CC[C@H](N4)[C@H]2[C@H](C)O3)c1C(F)(F)F` [Compound 241, 2-Chloro-5-((5S,5aS,6S,9R)-1-chloro-12-(((2R,7aS)-2-fluorotetrahydro-1H-pyrrolizin-7a(5H)-yl)methoxy)-5-methyl-5a,6,7,8,9,10-hexahydro-5H-4-oxa-3,10a,11,13,14-pentaaza-6,9-methanonaphtho[1,8-ab]heptalen-2-yl)-3-methyl-4-(trifluoromethyl)aniline], the pIC50 is 7.79 in assay [1] and 5.92 in assay [2].

As for `Cc1c(F)c(N)cc(-c2nc3c4c(nc(OC[C@@]5(CCF)CCCN5C)nc4c2F)N2C[C@H]4CC[C@H](N4)[C@H]2[C@H](C)O3)c1C(F)(F)F` (single isomer, unassigned) [127 (isomer 1)], the pIC50 in assay [1] was 7.30; in assay [2], 5.22.

Consider `Cc1c(F)c(N)cc(-c2nc3c4c(nc(OC[C@]56COC[C@H]5CCN6C)nc4c2F)N2C[C@H]4CC[C@H](N4)[C@H]2[C@H](C)O3)c1C(F)(F)F` (single isomer, unassigned) [134 (isomer 1)], for which the values for the pIC50 in assay [1] and in assay [2] were 8.07 and 5.59, respectively.

On to `Cc1nc(N)cc(-c2nc3c4c(nc(OCC5(CN6CCC7(CCCO7)C6)CC5)nc4c2F)N2C[C@H]4CC[C@H](N4)[C@H]2[C@H](C)O3)c1C(F)(F)F` (stereo partly drawn) [Compound 287, 4-((5S,5aS,6S,9R)-12-((1-((1-oxa-7-azaspiro[4.4]nonan-7-yl)methyl)cyclopropyl)methoxy)-1-fluoro-5-methyl-5a,6,7,8,9,10-hexahydro-5H-4-oxa-3,10a,11,13,14-pentaaza[6,9]methanonaphtho[1,8-ab]heptalene-2-yl)-6-methyl-5-(trifluoromethyl)pyridin-2-amine], for which the pIC50 in assay [1] is 8.24; in assay [2] it was 5.86.

Consider `Cc1nc(N)cc(-c2nc3c4c(nc(OC[C@@]56CCCN5C[C@H](F)C6)nc4c2F)N2C[C@H]4CC[C@H](N4)[C@H]2[C@H](C)O3)c1OC(F)F` [Compound 188, 5-(Difluoromethoxy)-4-((5S,5aS,6S,9R)-1-fluoro-12-(((2R,7aS)-2-fluorotetrahydro-1H-pyrrolizin-7a(5H)-yl)methoxy)-5-methyl-5a,6,7,8,9,10-hexahydro-5H-4-oxa-3,10a,11,13,14-pentaaza-6,9-methanonaphtho[1,8-ab]heptalene-2-yl)-6-methylpyridin-2-amine], for which the pIC50 in assay [1] is 7.18; in assay [2], 5.00.

For `Cc1c(F)c(N)cc(-c2nc3c4c(nc(OCC5CC6COCCN65)nc4c2F)N2C[C@H]4CC[C@H](N4)[C@H]2[C@H](C)O3)c1C(F)(F)F` (mixture of isomers) [159 (mixture), 5-((5S,5aS,6S,9R)-12-((4-Oxa-1-azabicyclo[4.2.0]octan-8-yl)methoxy)-1-fluoro-5-methyl-5a,6,7,8,9,10-hexahydro-5H-4-oxa-3,10a,11,13,14-pentaaza-6,9-methanonaphtho[1,8-ab]heptalen-2-yl)-2-fluoro-3-methyl-4-(trifluoromethyl)aniline], the pIC50 in assay [1] was 7.75; in assay [2], 5.43.

Take `C[C@@H]1Oc2nc(-c3cc(N)c(F)c(F)c3C(F)(F)F)c(F)c3nc(OCC45CCN4CC(F)(F)C5)nc(c23)N2C[C@H]3CC[C@H](N3)[C@@H]12` (stereo partly drawn) [Compound 155, 5-((5S,5aS,6S,9R)-12-((3,3-difluoro-1-azabicyclo[3.2.0]heptan-5-yl)methoxy)-1-fluoro-5-methyl-5a,6,7,8,9,10-hexahydro-5H-4-oxa-3,10a,11,13,14-pentaaza-6,9-methanonaphtho[1,8-ab]heptalen-2-yl)-2,3-difluoro-4-(trifluoromethyl)aniline]: the negative-log IC50 (pIC50) in assay [1] is 8.05; in assay [2], 5.32.

As for `C[C@@H]1Oc2nc(-c3cc(N)cnc3C(F)(F)F)c(F)c3nc(OC[C@@]45CCCN4C[C@H](F)C5)nc(c23)N2C[C@H]3CC[C@H](N3)[C@@H]12` [Compound 178, 5-((5S,5aS,6S,9R)-1-Fluoro-12-(((2R,7aS)-2-fluorotetrahydro-1H-pyrrolizin-7a(5H)-yl)methoxy)-5-methyl-5a,6,7,8,9,10-hexahydro-5H-4-oxa-3,10a,11,13,14-pentaaza-6,9-methanonaphtho[1,8-ab]heptalene-2-yl)-6-(trifluoromethyl)pyridin-3-amine], the values for the pIC50 in assay [1] and in assay [2] were 6.88 and 5.03, respectively.

Take `Cc1c(F)c(N)cc(-c2nc3c4c(nc(OC[C@@]56CCCN5C[C@H](F)C6)nc4c2F)N2C[C@H]4CC[C@H](NC4)[C@H]2CO3)c1C(F)(F)F` [Compound 236, 2-Fluoro-5-((5aS,6S,9S)-1-fluoro-12-(((2R,7aS)-2-fluorotetrahydro-1H-pyrrolizin-7a(5H)-yl)methoxy)-5a,6,7,8,9,10-hexahydro-5H-4-oxa-3,10a,11,13,15-pentaaza-6,9-ethanonaphtho[1,8-ab]heptalene-2-yl)-3-methyl-4-(trifluoromethyl)aniline]: the pIC50 in assay [1] is 5.70; in assay [2], 4.84.

In the case of `CCc1c(F)c(N)cc(-c2nc3c4c(nc(OC[C@@H]5CC[C@H]6COCCN65)nc4c2F)N2C[C@H]4CC[C@H](N4)[C@H]2[C@H](C)O3)c1C(F)(F)F` [Compound 232, 3-Ethyl-2-fluoro-5-((5S,5aS,6S,9R)-1-fluoro-12-(((6S,8aS)-hexahydro-1H-pyrrolo[2,1-c][1,4]oxazin-6-yl)methoxy)-5-methyl-5a,6,7,8,9,10-hexahydro-5H-4-oxa-3,10a,11,13,14-pentaaza-6,9-methanonaphtho[1,8-ab]heptalen-2-yl)-4-(trifluoromethyl)aniline], the results for the pIC50 in assay [1] and in assay [2] were 7.11 and 4.98, respectively.
